Test results taken from paper PMC8402619 (Viruses, 2021).

Assays:
CYP2C9 = CYP2C9 (Homo sapiens, UniProt P11712); experiment: Time-dependent CYP inhibition in pooled human liver microsomes; type: in vitro ADME
OATP1B1 = molecular target: T1, OATP1B1 (Homo sapiens, UniProt Q9Y6L6); experiment: Inhibition of transporter-mediated probe uptake in HEK293-OATP1B1 cells; type: in vitro ADME
T1 construct: host or cells: HEK293
T1 sequence (Q9Y6L6 1-691): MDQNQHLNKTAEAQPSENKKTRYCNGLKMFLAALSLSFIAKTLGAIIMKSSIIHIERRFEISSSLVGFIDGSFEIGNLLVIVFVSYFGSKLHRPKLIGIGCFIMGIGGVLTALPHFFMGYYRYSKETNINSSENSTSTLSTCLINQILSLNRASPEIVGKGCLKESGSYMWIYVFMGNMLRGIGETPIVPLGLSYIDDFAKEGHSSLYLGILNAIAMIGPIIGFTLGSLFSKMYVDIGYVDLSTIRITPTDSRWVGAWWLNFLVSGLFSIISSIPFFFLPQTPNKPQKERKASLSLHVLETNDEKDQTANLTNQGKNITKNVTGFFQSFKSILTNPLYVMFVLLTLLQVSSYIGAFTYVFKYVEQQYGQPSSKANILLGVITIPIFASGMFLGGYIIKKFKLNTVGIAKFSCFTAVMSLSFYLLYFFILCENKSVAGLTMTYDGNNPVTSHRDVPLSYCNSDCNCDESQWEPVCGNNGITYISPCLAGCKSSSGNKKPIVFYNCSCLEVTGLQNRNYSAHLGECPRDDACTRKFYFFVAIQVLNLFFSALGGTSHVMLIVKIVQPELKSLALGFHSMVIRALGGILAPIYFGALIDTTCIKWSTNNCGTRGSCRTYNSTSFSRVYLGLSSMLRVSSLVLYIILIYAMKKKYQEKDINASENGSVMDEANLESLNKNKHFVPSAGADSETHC

[1] = Distribution between red blood cells and plasma in human blood; type: in vitro ADME
CYP2C8 = molecular target: T2, CYP2C8 (Homo sapiens, UniProt P10632); experiment: Time-dependent CYP inhibition in pooled human liver microsomes; type: in vitro ADME
T2 sequence (P10632 1-490): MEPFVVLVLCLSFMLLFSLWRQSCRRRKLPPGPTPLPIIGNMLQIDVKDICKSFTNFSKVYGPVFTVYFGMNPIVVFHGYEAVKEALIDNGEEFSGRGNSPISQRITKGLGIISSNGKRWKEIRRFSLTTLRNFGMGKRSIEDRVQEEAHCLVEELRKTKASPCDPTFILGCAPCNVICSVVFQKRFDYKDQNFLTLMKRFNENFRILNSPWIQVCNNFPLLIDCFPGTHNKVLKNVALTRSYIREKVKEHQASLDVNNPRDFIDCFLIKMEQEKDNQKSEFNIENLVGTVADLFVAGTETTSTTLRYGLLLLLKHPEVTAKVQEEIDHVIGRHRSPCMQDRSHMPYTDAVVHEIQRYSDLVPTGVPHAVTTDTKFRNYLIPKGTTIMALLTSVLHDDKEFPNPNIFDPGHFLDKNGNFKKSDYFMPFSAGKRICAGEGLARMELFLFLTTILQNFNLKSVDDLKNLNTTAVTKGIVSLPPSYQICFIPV

CYP2B6 [2] = molecular target: T3, CYP2B6 (Homo sapiens, UniProt P20813); experiment: Reversible CYP inhibition in pooled human liver microsomes; type: in vitro ADME
T3 sequence (P20813 1-491): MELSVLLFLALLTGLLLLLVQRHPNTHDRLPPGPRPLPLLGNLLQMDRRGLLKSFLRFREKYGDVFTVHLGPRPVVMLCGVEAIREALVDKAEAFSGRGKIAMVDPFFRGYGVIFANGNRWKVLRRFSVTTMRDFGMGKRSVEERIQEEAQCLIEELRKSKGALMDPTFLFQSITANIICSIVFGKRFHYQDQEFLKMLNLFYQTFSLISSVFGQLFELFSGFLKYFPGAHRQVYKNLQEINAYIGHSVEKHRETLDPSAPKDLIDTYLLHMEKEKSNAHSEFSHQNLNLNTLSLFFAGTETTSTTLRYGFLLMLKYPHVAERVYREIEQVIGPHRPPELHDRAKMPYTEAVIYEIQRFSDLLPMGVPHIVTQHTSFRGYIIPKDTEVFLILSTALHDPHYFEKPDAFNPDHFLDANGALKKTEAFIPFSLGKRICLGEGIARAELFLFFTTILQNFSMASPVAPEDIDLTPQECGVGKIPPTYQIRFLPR

CYP2B6 [3] = experiment: CYP induction in cryopreserved human hepatocytes; conditions: for mRNA Mean Fold Change ± SD CYP2B6: 48 h, n = 3 donors, vs DMSO vehicle
MATE2K = molecular target: T4, MATE2K (Homo sapiens, UniProt Q86VL8); experiment: Islatravir uptake as substrate, MDCKII vs MDCKII-MATE2K cells; type: in vitro ADME
T4 construct: expressed in transfected cells; host or cells: MDCKII

MRP3 = molecular target: T5, MRP3 (Homo sapiens, UniProt O15438); experiment: Inhibition of ATP-dependent probe uptake in Sf9 membrane vesicles; type: in vitro ADME; conditions: MRP3-mediated ATP-dependent uptake of E217βG
T5 construct: purchased Thermo Fisher Scientific; host or cells: Sf9
T5 sequence (O15438 whole entry): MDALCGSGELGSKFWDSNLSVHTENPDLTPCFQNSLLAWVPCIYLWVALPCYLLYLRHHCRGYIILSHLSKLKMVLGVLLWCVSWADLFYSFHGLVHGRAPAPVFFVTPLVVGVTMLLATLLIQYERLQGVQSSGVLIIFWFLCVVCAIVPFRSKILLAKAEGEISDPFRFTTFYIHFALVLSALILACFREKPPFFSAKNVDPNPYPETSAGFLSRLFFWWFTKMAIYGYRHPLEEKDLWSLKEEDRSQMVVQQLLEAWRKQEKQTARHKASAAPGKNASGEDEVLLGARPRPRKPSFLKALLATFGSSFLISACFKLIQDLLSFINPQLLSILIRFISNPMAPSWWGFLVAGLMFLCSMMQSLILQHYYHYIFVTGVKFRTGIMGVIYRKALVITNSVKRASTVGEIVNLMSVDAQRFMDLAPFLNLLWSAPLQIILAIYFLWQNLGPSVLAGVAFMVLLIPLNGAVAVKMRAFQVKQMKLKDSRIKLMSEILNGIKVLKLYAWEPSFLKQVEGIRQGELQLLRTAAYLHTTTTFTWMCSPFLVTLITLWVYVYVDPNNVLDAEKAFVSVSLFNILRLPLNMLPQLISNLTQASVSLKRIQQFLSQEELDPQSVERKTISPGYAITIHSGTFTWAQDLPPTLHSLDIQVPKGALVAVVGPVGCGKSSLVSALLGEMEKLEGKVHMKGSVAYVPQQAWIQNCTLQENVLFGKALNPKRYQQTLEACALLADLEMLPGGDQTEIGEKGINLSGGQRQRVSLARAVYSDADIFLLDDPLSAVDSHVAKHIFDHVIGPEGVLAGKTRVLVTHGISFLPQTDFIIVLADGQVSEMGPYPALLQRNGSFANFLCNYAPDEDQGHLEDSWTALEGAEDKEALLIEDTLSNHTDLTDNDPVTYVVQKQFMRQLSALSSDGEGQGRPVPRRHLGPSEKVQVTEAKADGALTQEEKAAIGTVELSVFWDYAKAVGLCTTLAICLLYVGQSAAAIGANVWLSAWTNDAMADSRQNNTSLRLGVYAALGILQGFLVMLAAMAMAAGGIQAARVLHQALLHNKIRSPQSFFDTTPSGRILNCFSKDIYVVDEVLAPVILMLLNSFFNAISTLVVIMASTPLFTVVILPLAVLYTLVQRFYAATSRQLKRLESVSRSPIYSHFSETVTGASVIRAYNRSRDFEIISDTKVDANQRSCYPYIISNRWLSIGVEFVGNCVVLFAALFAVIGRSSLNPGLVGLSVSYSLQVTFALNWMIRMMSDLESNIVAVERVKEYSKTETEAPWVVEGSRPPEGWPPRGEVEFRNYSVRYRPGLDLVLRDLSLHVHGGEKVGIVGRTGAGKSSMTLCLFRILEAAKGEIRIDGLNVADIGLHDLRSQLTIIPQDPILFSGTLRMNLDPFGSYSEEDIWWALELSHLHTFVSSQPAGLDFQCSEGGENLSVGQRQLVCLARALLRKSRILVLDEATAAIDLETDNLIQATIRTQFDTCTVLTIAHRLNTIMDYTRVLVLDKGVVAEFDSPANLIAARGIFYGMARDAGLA

Sequence of CYP2C9 (P11712 whole entry): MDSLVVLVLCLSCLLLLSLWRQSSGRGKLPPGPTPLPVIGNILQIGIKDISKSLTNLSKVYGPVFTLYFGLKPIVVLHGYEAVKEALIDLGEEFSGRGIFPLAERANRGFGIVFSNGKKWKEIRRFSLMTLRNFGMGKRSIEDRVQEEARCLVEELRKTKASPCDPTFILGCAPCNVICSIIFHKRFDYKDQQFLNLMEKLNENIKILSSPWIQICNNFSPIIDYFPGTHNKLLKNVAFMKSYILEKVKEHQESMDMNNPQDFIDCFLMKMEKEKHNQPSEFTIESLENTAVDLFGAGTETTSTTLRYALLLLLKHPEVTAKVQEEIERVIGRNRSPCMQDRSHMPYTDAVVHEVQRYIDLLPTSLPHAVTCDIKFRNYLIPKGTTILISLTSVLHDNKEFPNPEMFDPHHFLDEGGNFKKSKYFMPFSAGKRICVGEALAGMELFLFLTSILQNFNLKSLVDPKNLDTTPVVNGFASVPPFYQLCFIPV
T4 sequence (Q86VL8 1-566 isoform Q86VL8-3): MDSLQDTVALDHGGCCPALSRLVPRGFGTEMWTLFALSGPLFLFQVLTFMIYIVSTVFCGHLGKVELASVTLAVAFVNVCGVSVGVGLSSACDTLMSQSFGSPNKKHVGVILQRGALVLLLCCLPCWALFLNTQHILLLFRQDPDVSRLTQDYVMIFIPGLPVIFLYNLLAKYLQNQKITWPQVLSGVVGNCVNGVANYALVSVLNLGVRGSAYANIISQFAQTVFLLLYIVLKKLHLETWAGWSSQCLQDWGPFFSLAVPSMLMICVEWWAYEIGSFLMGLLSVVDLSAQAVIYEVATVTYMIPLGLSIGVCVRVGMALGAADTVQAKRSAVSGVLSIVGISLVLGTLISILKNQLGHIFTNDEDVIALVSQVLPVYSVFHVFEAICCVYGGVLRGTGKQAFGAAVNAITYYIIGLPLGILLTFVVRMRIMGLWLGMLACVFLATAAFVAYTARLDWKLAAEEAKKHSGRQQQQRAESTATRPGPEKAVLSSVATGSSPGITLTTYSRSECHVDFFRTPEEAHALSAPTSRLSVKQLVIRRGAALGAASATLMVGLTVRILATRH

C#C[C@]1(CO)O[C@@H](n2cnc3c(N)nc(F)nc32)C[C@@H]1O [Islatravir, 4′-Ethynyl-2-fluoro-2′-deoxyadenosine]
time-dependent inhibition (CYP2C9; CYP2C9, pre-incubation of 10 and 50 µM for up to 30 min): no time-dependent inhibition | DDI Potential (CYP2C9; CYP2C9 time dependent inhibition): Low risk ^h | IC50 (CYP2C9; time dependent, CYP2C9, read-out: Islatravir IC50): > 50 µM | IC50 (OATP1B1; OATP1B1-mediated uptake of pitavastatin, read-out: Islatravir IC50): > 300 µM | Maximum Unbound Inlet Concentration (Iin,max,u) to IC50 Ratio (OATP1B1; OATP1B1, 60 mg dose): <0.035 | DDI Potential (OATP1B1; OATP1B1 inhibition, FDA, EMA, PMDA guidance): Low risk | concentration dependence of blood:plasma partitioning ([1]; 0.01 to 10 µM): did not exhibit concentration-dependent partitioning | blood plasma ratio at 60 min, 0.1 µM ([1]; whole blood, human blood, 0.1 µM, ± standard error, read-out: mean blood:plasma concentration ratio): 1.3 | time-dependent inhibition (CYP2C8; CYP2C8, pre-incubation of 10 and 50 µM for up to 30 min): no time-dependent inhibition | DDI Potential (CYP2C8; CYP2C8 time dependent inhibition): Low risk ^h | IC50 (CYP2C8; time dependent, CYP2C8, read-out: Islatravir IC50): > 50 µM | DDI Potential (CYP2B6 [2]; CYP2B6 reversible inhibition, FDA, EMA, PMDA guidance): Low risk | Maximum Unbound Plasma Concentration (Imax,u) to Ki,u Ratio (CYP2B6 [2]; CYP2B6 reversible, 60 mg, Cmax 1.01 µM, fu,p 0.96, Ki,u = IC50/2): <0.019 µM | IC50 (CYP2B6 [2]; reversible, CYP2B6 bupropion hydroxylation, read-out: Islatravir IC50): > 100 µM | mRNA Mean Fold Change ± SD CYP2B6 (CYP2B6 [3]; 0.1 µM): 0.5 ± 0.1 | mRNA Mean Fold Change ± SD CYP2B6 (CYP2B6 [3]; 0.5 µM): 0.5 ± 0.2 | mRNA Mean Fold Change ± SD CYP2B6 (CYP2B6 [3]; 1 µM): 0.7 ± 0.2 | mRNA Mean Fold Change ± SD CYP2B6 (CYP2B6 [3]; 5 µM): 0.7 ± 0.1 | mRNA Mean Fold Change ± SD CYP2B6 (CYP2B6 [3]; 10 µM): 0.9 ± 0.3 | mRNA Mean Fold Change ± SD CYP2B6 (CYP2B6 [3]; 20 µM): 0.4 ± 0.3 | mRNA response relative to positive control (CYP2B6 [3]; CYP2B6, each tested concentration 0.1-20 µM): less than 20% | enzyme activity, fold of solvent control (CYP2B6 [3]; CYP2B6 bupropion hydroxylation, all islatravir concentrations): ≤ 1.1 fold | Islatravir Uptake Control Cells (MATE2K; MATE2K row, MDCKII control cells, 2 µM [14C]islatravir, 20 min, mean ± SD, n = 3): 3.12 ± 0.17 pmole/10^6 Cells | Conclusions (MATE2K; MATE2K substrate assessment): Non-substrate | Fold-Difference (MATE2K; MATE2K, uptake into transporter-expressing cells to control cells, 20 min): 1.14 | Islatravir Uptake Transporter-Expressing Cells (MATE2K; MDCKII-MATE2K, 2 µM [14C]islatravir, 20 min, mean ± SD, n = 3): 3.56 ± 0.17 pmole/10^6 Cells | IC50 (MRP3): > 100 µM
